Source: ChEMBL document CHEMBL1138377, “N-Substituted carbazolyloxyacetic acids modulate Alzheimer associated gamma-secretase” (Bioorg Med Chem Lett, 2007)
Calls of active or inactive are those of the source. The rule behind the calls is not given here.

What was measured:
[1] = molecular target: Gamma-secretase; experiment: Effect on gamma-secretase activity in human H4 cells expressing APP695 assessed as reduction of Amyloid beta-40 formation LPECL assay; type: cell-based
[2] = molecular target: Gamma-secretase; experiment: Effect on gamma-secretase activity in human H4 cells expressing APP695 assessed as reduction of Amyloid beta42 formation LPECL assay; type: cell-based
[3] = molecular target: Gamma-secretase; experiment: Effect on gamma-secretase activity in human H4 cells expressing APP695 assessed as increase in Amyloid beta-38 formation by LPECL assay; type: cell-based; conditions: read-out: IC50 (the source's name)
[4] = test system: H4; experiment: Cytotoxicity against human H4 cells assessed as reduction of viability; type: cell-based
[5] = molecular target: Prostaglandin G/H synthase 1 (Homo sapiens) (UniProt P23219); experiment: Activity of COX1 at 10 uM
Sequence of Prostaglandin G/H synthase 1 (Homo sapiens) (P23219 whole entry): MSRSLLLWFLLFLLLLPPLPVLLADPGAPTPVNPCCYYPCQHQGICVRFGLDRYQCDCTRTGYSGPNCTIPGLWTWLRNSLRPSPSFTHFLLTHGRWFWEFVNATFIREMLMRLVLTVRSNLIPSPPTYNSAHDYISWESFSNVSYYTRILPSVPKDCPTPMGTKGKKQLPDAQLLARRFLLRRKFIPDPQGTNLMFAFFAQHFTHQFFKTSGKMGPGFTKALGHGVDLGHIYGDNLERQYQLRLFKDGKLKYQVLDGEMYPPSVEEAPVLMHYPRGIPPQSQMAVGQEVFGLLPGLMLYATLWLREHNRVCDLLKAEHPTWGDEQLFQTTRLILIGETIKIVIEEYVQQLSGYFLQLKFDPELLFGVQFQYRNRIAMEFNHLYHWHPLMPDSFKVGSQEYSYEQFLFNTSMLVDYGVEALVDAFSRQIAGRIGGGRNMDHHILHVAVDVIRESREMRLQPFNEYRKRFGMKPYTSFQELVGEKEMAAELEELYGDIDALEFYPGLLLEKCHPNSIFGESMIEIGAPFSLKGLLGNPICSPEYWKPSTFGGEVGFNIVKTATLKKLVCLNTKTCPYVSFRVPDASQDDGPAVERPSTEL

[6] = molecular target: T1, Prostaglandin G/H synthase 2 (Homo sapiens) (UniProt P35354); experiment: Activity of COX2 at 10 uM
T1 sequence (whole entry): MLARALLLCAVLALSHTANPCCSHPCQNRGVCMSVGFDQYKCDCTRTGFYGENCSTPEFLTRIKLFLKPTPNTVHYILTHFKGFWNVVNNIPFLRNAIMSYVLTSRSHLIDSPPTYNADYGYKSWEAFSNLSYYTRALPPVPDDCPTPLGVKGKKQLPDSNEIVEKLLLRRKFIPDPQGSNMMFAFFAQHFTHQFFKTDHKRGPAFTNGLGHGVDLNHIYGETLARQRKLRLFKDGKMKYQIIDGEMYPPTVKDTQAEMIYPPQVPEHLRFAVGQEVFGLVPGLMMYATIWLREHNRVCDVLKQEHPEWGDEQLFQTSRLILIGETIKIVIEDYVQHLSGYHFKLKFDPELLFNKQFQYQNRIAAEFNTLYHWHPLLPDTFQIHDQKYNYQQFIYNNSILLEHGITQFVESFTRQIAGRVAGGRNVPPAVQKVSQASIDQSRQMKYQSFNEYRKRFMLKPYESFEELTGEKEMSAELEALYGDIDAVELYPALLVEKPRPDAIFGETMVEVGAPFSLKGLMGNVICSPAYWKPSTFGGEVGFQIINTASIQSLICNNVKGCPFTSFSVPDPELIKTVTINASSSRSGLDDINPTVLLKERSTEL

| SMILES | IC50 [1] | IC50 [2] | EC50 [3] | Activity [5] | Activity [6] | Activity [4] |
| --- | --- | --- | --- | --- | --- | --- |
| O=C(O)COc1ccc2c3ccccc3n(S(=O)(=O)c3ccccc3Br)c2c1 | > 40 µM | > 40 µM | > 40 µM | – | – | 40 µM |
| CCCCCCCCCCn1c2ccccc2c2ccc(OCC(=O)O)cc21 | > 40 µM | 11 µM | – | – | – | > 40 µM |
| CCCCCCCCc1ccc(S(=O)(=O)n2c3ccccc3c3ccc(OCC(=O)O)cc32)cc1 | > 40 µM | 37 µM | – | – | – | > 40 µM |
| CC(C)c1cc(C(C)C)c(S(=O)(=O)n2c3ccccc3c3ccc(OCC(=O)O)cc32)c(C(C)C)c1 | 19 µM | 7.5 µM | 7.8 µM | inactive | inactive | 20 µM |
| O=C(O)COc1ccc2c3ccccc3n(S(=O)(=O)c3ccc(-c4ccccc4)cc3)c2c1 | 40 µM | 24 µM | 13 µM | – | – | 20 µM |
| CC(C)c1cc(C(C)C)c(S(=O)(=O)n2c3ccc(Cl)cc3c3ccc(C(C)C(=O)O)cc32)c(C(C)C)c1 (configuration not stated) | > 20 µM | 8.5 µM | 9.3 µM | – | – | – |
| O=C(O)COc1ccc2c3ccccc3n(S(=O)(=O)c3ccc(Cl)cc3)c2c1 | > 40 µM | 32 µM | 32 µM | – | – | 40 µM |
| O=C(O)COc1ccc2c(c1)[nH]c1ccccc12 | > 40 µM | > 40 µM | > 40 µM | – | – | > 40 µM |
| O=C(O)COc1ccc2c3ccccc3n(S(=O)(=O)c3cc(C(F)(F)F)cc(C(F)(F)F)c3)c2c1 | > 40 µM | > 40 µM | > 40 µM | – | – | 20 µM |
| O=C(O)COc1ccc2c3ccccc3n(S(=O)(=O)c3cccc([N+](=O)[O-])c3)c2c1 | > 40 µM | > 40 µM | 16 µM | – | – | 40 µM |

Continued, in another order:

| IC50 [1] | IC50 [2] | EC50 [3] | Activity [5] | Activity [6] | SMILES | Activity [4] |
| --- | --- | --- | --- | --- | --- | --- |
| > 40 µM | > 40 µM | 13 µM | – | – | O=C(O)COc1ccc2c3ccccc3n(S(=O)(=O)c3cc(F)cc(F)c3)c2c1 | 40 µM |
| – | 0.0071 µM | – | – | – | C[C@H](c1ccc(F)cc1CCCC(=O)O)N(c1cc(F)ccc1F)S(=O)(=O)c1ccc(Cl)cc1 | – |
| > 40 µM | 2.9 µM | 5.8 µM | – | – | CCCCCCCCCCn1c2ccc(Cl)cc2c2ccc(C(C)C(=O)O)cc21 (configuration not stated) | – |
| > 40 µM | 19 µM | 24 µM | – | – | CCCCCCCCn1c2ccccc2c2ccc(OCC(=O)O)cc21 | > 40 µM |
| > 40 µM | 38 µM | – | – | – | CCCc1ccc(S(=O)(=O)n2c3ccccc3c3ccc(OCC(=O)O)cc32)cc1 | > 40 µM |
| > 40 µM | 39 µM | 13 µM | – | – | Cc1ccc(S(=O)(=O)n2c3ccccc3c3ccc(OCC(=O)O)cc32)cc1 | 20 µM |
| > 40 µM | 17 µM | 30 µM | – | – | CCCCCCCCCn1c2ccccc2c2ccc(OCC(=O)O)cc21 | > 40 µM |
